The compounds below were run against Squalene monooxygenase (Rattus norvegicus, UniProt P52020) (assay: Compound was tested for its inhibitory activity against squalene epoxidase from rat liver microsomes).
Squalene monooxygenase, sequence (P52020 whole entry): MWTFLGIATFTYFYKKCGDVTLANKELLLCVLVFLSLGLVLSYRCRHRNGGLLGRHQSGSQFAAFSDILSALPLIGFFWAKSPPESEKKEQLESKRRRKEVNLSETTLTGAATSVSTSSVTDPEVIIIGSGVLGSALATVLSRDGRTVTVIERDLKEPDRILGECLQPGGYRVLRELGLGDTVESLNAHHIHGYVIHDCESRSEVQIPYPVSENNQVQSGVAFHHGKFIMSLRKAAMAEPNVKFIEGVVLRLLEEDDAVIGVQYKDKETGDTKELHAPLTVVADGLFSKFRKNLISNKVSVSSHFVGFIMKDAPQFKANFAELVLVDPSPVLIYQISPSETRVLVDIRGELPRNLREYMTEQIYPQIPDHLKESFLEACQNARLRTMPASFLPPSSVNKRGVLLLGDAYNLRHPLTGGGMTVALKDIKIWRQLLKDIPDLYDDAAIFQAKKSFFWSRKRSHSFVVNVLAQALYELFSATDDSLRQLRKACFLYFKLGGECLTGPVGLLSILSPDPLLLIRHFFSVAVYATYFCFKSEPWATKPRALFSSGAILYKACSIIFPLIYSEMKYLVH

Question: How did the IC50 turn out when CC(C)=CCC/C(C)=C/CC/C(C)=C/CCC1OC1(C)CC/C=C(\C)CC[C@@H]1OC1(C)C (some centres undefined) was run?
Answer: The IC50 was 13 µM.

Question: CC(C)=CCC/C(C)=C/CC/C(C)=C/CC/C=C(\C)CCC1OC1(C)CCC=C(C)C (centres undefined) was tested. Which IC50 did it give?
Answer: The IC50 was 31.8 µM.

Question: With CC(C)=CCC/C(C)=C/CC/C(C)=C/CCC1OC1(C)CC/C=C(\C)CCC=C(C)C (centres undefined) as the compound, how does the IC50 read?
Answer: The IC50 was 50.9 µM.

Question: How did the IC50 turn out when CC(C)=CCCC1(C)OC1CC/C(C)=C/CC/C=C(\C)CC/C=C(\C)CC[C@@H]1OC1(C)C (some centres undefined) was run?
Answer: Its IC50 is 0.11 µM.
